Data on 1 compound can be found in US20230181700A1 (priority 2021, published 2023).

For this assay, the system named is Vero cells. It counts as cell-based. The following applies: read-out: IC50 of toxicity.

Each structure is given as a SMILES string.

Regarding `C[C@@H]1C[C@@H]([C@H](O)CC2CC(=O)NC(=O)C2)C(=O)[C@@H](C)C1` [cyclohexamide], the half-maximal inhibitory concentration (IC50) turned out to be 200 nM.

The term IC50 denotes the point on the concentration scale where inhibition reaches its midpoint.
